Results on one compound are retold here after paper PMC7957563, “The Novel benzamide Derivative, VKNG-2, Restores the Efficacy of Chemotherapeutic Drugs in Colon Cancer Cell Lines by Inhibiting the ABCG2 Transporter” (International Journal of Molecular Sciences, 2021).

The test addresses T1, ABCG2 transporter (Homo sapiens, UniProt Q9UNQ0).
T1 construct: ABCG2-overexpressing cell membranes
T1 sequence (Q9UNQ0 1-655): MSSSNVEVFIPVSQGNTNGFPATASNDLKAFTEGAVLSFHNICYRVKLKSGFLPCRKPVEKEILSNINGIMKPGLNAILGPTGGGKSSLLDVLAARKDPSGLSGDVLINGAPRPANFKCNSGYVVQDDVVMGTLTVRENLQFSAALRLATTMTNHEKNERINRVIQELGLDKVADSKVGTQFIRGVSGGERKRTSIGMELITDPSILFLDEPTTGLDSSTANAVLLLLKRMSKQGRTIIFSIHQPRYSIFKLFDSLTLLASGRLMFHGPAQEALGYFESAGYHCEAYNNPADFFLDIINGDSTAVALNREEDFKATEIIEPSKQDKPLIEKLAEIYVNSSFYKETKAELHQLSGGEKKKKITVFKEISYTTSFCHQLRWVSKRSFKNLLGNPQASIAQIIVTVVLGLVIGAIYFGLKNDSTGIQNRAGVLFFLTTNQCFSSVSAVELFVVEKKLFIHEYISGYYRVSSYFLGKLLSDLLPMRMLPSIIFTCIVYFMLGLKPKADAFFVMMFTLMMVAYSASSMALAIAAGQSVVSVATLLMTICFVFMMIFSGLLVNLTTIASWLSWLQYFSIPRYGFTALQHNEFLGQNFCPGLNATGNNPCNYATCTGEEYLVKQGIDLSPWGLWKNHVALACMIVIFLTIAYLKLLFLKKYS
The test can be described thus: vanadate-sensitive ATPase stimulation in ABCG2-overexpressing membranes; [3H]-mitoxantrone efflux inhibition in S1-M1-80 cells. Type of test: biochemical.

One may read the EC50 as the concentration that produces a half-maximal response. Consider `CCCc1ccc(NC(=O)c2ccccc2NC(=O)Nc2cccc([N+](=O)[O-])c2)cc1` [VKNG-2, 2-(3-(3-Nitrophenyl)ureido)-N-(4-propylphenyl)benzamide], for which a half-maximal effect (EC50) was put at 2300 nM.
